Key:
mADRP promoter = assay: NHR-promoter luciferase screen, mADRP promoter; type: cell-based, mouse; conditions: for Luc. act., normalized to lacZ / Normalized Luc. act., normalized to control: ADRP promoter, HR/ligand component; for mADRP promoter reporter activity: transcription factor +/- ligand, control = 1.00
Description: (§1) The use, feasibility, and reproducibility of the functional NHR-promoter screen in a 48-well format have been tested validated. Briefly, there were co-expressed 50 ng of each NHR/NHR homodimer or NHR/RXR heterodimer with 100 ng promoter/luciferase construct and 50 ng of LacZ (as a control for transfection efficiency) in CV-1 cells using Fugene HD (Roche) as a transfection reagent (alternatively or additionally, a CMV-YFP construct can be used as a transfection control). Each of the nuclear hormone receptors that were used in these experiments was cloned into a pcDNA3.1 vector and comprised a C-terminally linked V5H6 tag. Twenty-four hours after transfection, appropriate ligands were added, where applicable, (see Table 5 for various ligands and concentrations and after 48 hrs, samples were assayed for luciferase and LacZ activity. To measure for luciferase activity 15 ul of sample was added to 30 ul of luciferase buffer (20 mM tricine, 1.07 mM MgCarbonate, 2.67 mM MgSulfate, 0.1 mM Naz-EDTA, 5 mM DTT, 5 mM ATP, 0.15 mg/ml CoA, 0.5 mM Luciferin), mixed briefly, and run in a Perkin Elmer Victor 5 luminometer. Thus, the functional NHR-promoter screen was used to observe the transcriptional activity of 29 promoters from various physiological pathways including inflammation, lipid and sugar metabolism, cholesterol transport, xenobiotic metabolism, and circadian rhythm.
(§2) The promoters that facilitate transcription of the indicated gene products that were tested using the protocols described herein are listed in the first row of the table. The nuclear hormone receptors and, where applicable, ligands that were assayed for their transcriptional effects on the promoters are listed in the first column of the table. The data represent the luciferase activity of each sample normalized to both the lacZ activity of that sample and to a control, e.g., no NHR or ligand, as customary in the art. As described previously, these normalizations allow the transcriptional activity of each reporter cell to be compared to other samples.
(§3) Tables 7-40 show the transcriptional effects of the hormone receptors, and, where applicable, ligands (orphan receptors are screened without ligand), on each individual promoter. […] The control data of each table are shown in their last rows.

hG6PD promoter = assay: NHR-promoter luciferase screen, hG6PD promoter; type: cell-based, human; conditions: for Luc. act., normalized to lacZ / Normalized Luc. act., normalized to control: G6PD promoter reporter, co-transfected HR, without or with its ligand; for Normalized Luc. act., normalized to control: relative to control; for luciferase activity normalized to lacZ activity and to a control, hG6PD: hG6PD promoter-luciferase, CV-1 cells, NHR +/- ligand, control = 1.00
Description: as §1, §2, §3

MCP-1 promoter = assay: NHR-promoter luciferase screen, MCP-1 promoter; type: cell-based; conditions: for Normalized Luc. act., normalized to control / Luc. act., normalized to lacZ: MCP-1 promoter reporter; for Normalized Luc. act., normalized to control: HR without or with its ligand, relative to control; for Luc. act., normalized to lacZ: hormone receptor (HR) without or with its ligand; for mMCP-1 promoter reporter activity: transcription factor +/- ligand, control = 1.00
Description: as §1, §2, §3

mPgc1b promoter = assay: NHR-promoter luciferase screen, mPgc1b promoter; type: cell-based, mouse; conditions: for Luc. act., normalized to lacZ / Normalized Luc. act., normalized to control: PGC1b promoter reporter, co-transfected HR, without or with its ligand; for Normalized Luc. act., normalized to control: relative to control; for luciferase activity normalized to lacZ activity and to a control, mPgc1b: mPgc1b promoter-luciferase, CV-1 cells, NHR +/- ligand, control = 1.00
Description: Briefly, there were co-expressed 50 ng of each NHR/NHR homodimer or NHR/RXR heterodimer with 100 ng promoter/luciferase construct and 50 ng of LacZ (as a control for transfection efficiency) in CV-1 cells using Fugene HD (Roche) as a transfection reagent (alternatively or additionally, a CMV-YFP construct can be used as a transfection control). Each of the nuclear hormone receptors that were used in these experiments was cloned into a pcDNA3.1 vector and comprised a C-terminally linked V5H6 tag.
as §2, §3

SREBP1c promoter = assay: NHR-promoter luciferase screen, SREBP1c promoter; type: cell-based, mouse; conditions: for Luc. act., normalized to lacZ / Normalized Luc. act., normalized to control: SREBP1c promoter, HR component without or with ligand; for mSREBP1-c promoter reporter activity: transcription factor +/- ligand, control = 1.00
Description: as §1, §2, §3

hCAR promoter = assay: NHR-promoter luciferase screen, hCAR promoter; type: cell-based, human; conditions: for luciferase activity normalized to lacZ activity and to a control, hCAR: hCAR promoter-luciferase, CV-1 cells, NHR +/- ligand, control = 1.00; for Luc. act., normalized to lacZ / Normalized Luc. act., normalized to control: hCAR promoter, HR/ligand component
Description: as §1, §2, §3

Substance | Luc. act., normalized to lacZ (mADRP promoter) | Normalized Luc. act., normalized to control (mADRP promoter) | mADRP promoter reporter activity (mADRP promoter) | Luc. act., normalized to lacZ (hG6PD promoter) | Normalized Luc. act., normalized to control (hG6PD promoter) | luciferase activity normalized to lacZ activity and to a control, hG6PD (hG6PD promoter) | Normalized Luc. act., normalized to control (MCP-1 promoter) | Luc. act., normalized to lacZ (MCP-1 promoter) | mMCP-1 promoter reporter activity (MCP-1 promoter) | Luc. act., normalized to lacZ (mPgc1b promoter) | Normalized Luc. act., normalized to control (mPgc1b promoter) | luciferase activity normalized to lacZ activity and to a control, mPgc1b (mPgc1b promoter) | Luc. act., normalized to lacZ (SREBP1c promoter) | Normalized Luc. act., normalized to control (SREBP1c promoter) | mSREBP1-c promoter reporter activity (SREBP1c promoter) | luciferase activity normalized to lacZ activity and to a control, hCAR (hCAR promoter) | Luc. act., normalized to lacZ (hCAR promoter) | Normalized Luc. act., normalized to control (hCAR promoter) | regulation of the SREBP1c promoter (SREBP1c promoter; FIG. 2b, in words)
AR: Androsterone Receptor (NR3C4), cDNA driver | 600.8 | 1.2 | 1.21 | 41.5 | 1.1 | 1.11 | 0.6 | 62.4 | 0.58 | 9.0 | 0.8 | 0.76 | 418.4 | 1.3 | 1.30 | 0.89 | 28.0 | 0.9 | 
ERR1: Estrogen Related Receptor α (NR3B1, ERRa), cDNA driver | 767.6 | 1.5 | 1.54 | 59.1 | 1.6 | 1.58 | 2.2 | 237.3 | 2.22 | 8.8 | 0.7 | 0.75 | 316.8 | 1.0 | 0.98 | 0.82 | 25.8 | 0.8 | 
GR: Glucocorticoid Receptor (NR3C1), cDNA driver | 238.1 | 0.5 | 0.48 | 22.3 | 0.6 | 0.60 | 0.2 | 23.9 | 0.22 | 3.2 | 0.3 | 0.27 | 150.3 | 0.5 | 0.47 | 0.36 | 11.25 | 0.4 | 
LXRa: Liver X Receptor α (NR1H3), cDNA driver | 1095.7 | 2.2 | 2.20 | 60.5 | 1.6 | 1.62 | 0.9 | 97.3 | 0.91 | 8.40 | 0.7 | 0.71 | 5951.9 | 18.5 | 18.48 | 1.87 | 58.9 | 1.9 | specific and strong activation
NR4a1: NR4a1 (NR4A1; NUR77), nuclear hormone receptor cDNA driver | 1029.3 | 2.1 | 2.07 | 77.6 | 2.1 | 2.07 | 0.7 | 76.3 | 0.71 | 17.1 | 1.4 | 1.45 | 408.2 | 1.3 | 1.27 | 0.97 | 30.7 | 1.0 | 
PNR: Photoreceptor-specific Nuclear Receptor (NR2E3), cDNA driver | 381.7 | 0.8 | 0.77 | 45.9 | 1.2 | 1.23 | 1.1 | 116.3 | 1.09 | 4.9 | 0.4 | 0.42 | 265.7 | 0.8 | 0.82 | 0.38 | 11.9 | 0.4 | 
PPARa: Peroxisome proliferator activated receptor α (NR1C1), cDNA driver | 1497.1 | 3.0 | 3.01 | 55.6 | 1.5 | 1.49 | 1.1 | 121.8 | 1.14 | 9.33 | 0.8 | 0.79 | 935.6 | 2.9 | 2.90 | 1.39 | 43.9 | 1.4 | 

Reference: patent US20110263454A1, “Methods of Identifying Functional Characteristics of Promoters, Transcription Modifying Proteins and Transcription Modulating Agents” (Salk Institute for Biological Studies, priority 2008, published 2011)
